Results on one molecule are retold here after ChEMBL document CHEMBL5120794, “Development of 5-hydroxyl-1-azabenzanthrone derivatives as dual binding site and selective acetylcholinesterase inhibitors” (Eur J Med Chem, 2022).

Activity calls are given as the source filed them.

For series [1], the system named is PC-12. Put plainly: Induction of apoptosis in rat PC-12 cells assessed as early apoptotic cells at 0.5 uM preincubated for 4 hrs followed by H2O2 treatment for another 24 hrs by Annexin V and PI double staining based flow cytometric analysis (RVB = 4.52 %). The following applies: time 28 hrs. Format: functional.
The nature of series [2]: Clearance in Sprague-Dawley rat plasma at 2 mg/kg, iv measured at 10 to 1440 mins by LC-MS/MS analysis. It is filed as ADME, organism-based. The following applies: time 10-1440 min.
Series [3] concerns PC-12. Put plainly: Cytoprotective activity against H2O2-induced oxidative damage in rat PC-12 cells assessed as cell viability at 1 to 3 uM preincubated for 4 hrs followed by H2O2 treatment for another 24 hrs by MTT assay. It is filed as functional, cell-based. The following applies: dose 1-3 µM, time 28.0 hrs. A general note: Tetrazolium assays rely on reduction of a dye to a coloured formazan, in cell work by metabolically active cells.

The nature of series [4]: AUC (0 to infinity) in Sprague-Dawley rat plasma at 10 mg/kg, IG measured at 10 to 1440 mins by LC-MS/MS analysis. It is filed as ADME, organism-based. Further details: time lower 10 min, dose 10 mg/kg, time upper 1440 min, route ig. The following applies: po.
Series [5] can be described thus: Toxicity in sopolamine-induced cognitive impairment ICR mouse model assessed as morphological change in liver at 10 mg/kg, ip administered for 14 consecutive days followed by scopolmaine-stimulation measured on day 21 by H and E staining method. Format: organism-based. The following applies: in vivo, 504 h, time 21 day.
Series [6] can be described thus: AUC (0 to infinity) in Sprague-Dawley rat plasma at 2 mg/kg, iv measured at 10 to 1440 mins by LC-MS/MS analysis. Format: ADME, organism-based. On the set-up: time lower 10 min, dose 2 mg/kg, time upper 1440 min, route iv.
Series [7] relates to PC-12. Put plainly: Induction of apoptosis in rat PC-12 cells assessed as late apoptotic cells at 0.3 uM preincubated for 4 hrs followed by H2O2 treatment for another 24 hrs by Annexin V and PI double staining based flow cytometric analysis (RVB = 5.46 %). The note with it: time 28 hrs. It is filed as functional.
Series [8] relates to PC-12. Put plainly: Induction of apoptosis in rat PC-12 cells assessed as viable cells at 0.3 uM preincubated for 4 hrs followed by H2O2 treatment for another 24 hrs by Annexin V and PI double staining based flow cytometric analysis (RVB = 87.1 %). It is filed as functional. The note with it: time 28 hrs, read-out: Activity.
Series [9] has as its system PC-12. Description: Induction of apoptosis in rat PC-12 cells assessed as late apoptotic cells at 0.5 uM preincubated for 4 hrs followed by H2O2 treatment for another 24 hrs by Annexin V and PI double staining based flow cytometric analysis (RVB = 5.46 %). It is filed as functional. The following applies: time 28 hrs.
In series [10] the test system is PC-12. Put plainly: Antioxidant activity in H2O2-induced oxidative stress in rat PC-12 cells assessed as increase in expression of HO-1 level preincubated for 4 hrs followed by H2O2 treatment for another 24 hrs by Western blotting analysis. Format: functional, cell-based. The following applies: dose 0.5-3 µM, time 28.0 hrs, DDE = dose-dependent effect. (A western blot detects proteins with antibodies after separation by electrophoresis.)

A short description of series [11]: Half life in Sprague-Dawley rat plasma at 10 mg/kg, IG measured at 10 to 1440 mins by LC-MS/MS analysis. It is filed as ADME, organism-based. The note with it: po, time 10-1440 min.
Series [12] relates to PC-12. Description: Induction of apoptosis in rat PC-12 cells assessed as necrotic cells at 0.1 uM preincubated for 4 hrs followed by H2O2 treatment for another 24 hrs by Annexin V and PI double staining based flow cytometric analysis (RVB = 2.94 %). It is filed as functional. The note with it: time 28 hrs. For orientation: A flow cytometer gives signals particle by particle.

A further series is described as follows: in vitro. The following applies: PAMPA.
Series [13] can be described thus: AUC (0 to 24 hrs) in Sprague-Dawley rat plasma at 2 mg/kg, iv measured at 10 to 1440 mins by LC-MS/MS analysis. It is filed as ADME, organism-based. On the set-up: time lower 10 min, dose 2 mg/kg, time upper 1440 min, route iv.
Series [14] can be described thus: Toxicity in sopolamine-induced cognitive impairment ICR mouse model assessed as emesis at 10 mg/kg, ip administered for 14 consecutive days followed by scopolmaine-stimulation measured on day 21. It is filed as organism-based. The note with it: in vivo, 504 h, time 21 day.

In general, clearance refers to the rate of elimination divided by the concentration. In general, AUC(0-inf) refers to total exposure, with the tail of the curve extrapolated. Low values mean less exposure, high ones more exposure. In general, half-life refers to the time needed for the level to fall by half in the phase considered. As usually defined, the Papp is the rate of passage across a membrane or cell layer, normalised by area and donor concentration. Read a low Papp as slow passage. Broadly, the AUC(0-t) is the area under the concentration-time curve up to a stated or last time point. Low readings indicate low exposure, high ones high exposure. Regarding `CC1CCCCN1CCCOc1cc2c3c(nccc3c1)-c1ccccc1C2=O` (stereo not given), the Activity was 3.71% with PC-12 [1]; “Non-Toxic” in series [5]; 6.09% with PC-12 [7]; 4.81% with PC-12 [9]; “Dde” in the series on PC-12 [10]; 4.58% in the series with PC-12 [12]. Moreover, in series [14], the Activity result is listed as “Non-Toxic”. Besides, the clearance in series [2] worked out at 116 mL/min/kg. Moreover, the outcome in the series with PC-12 [3] was Active. Besides, the figures for the AUC(0-inf) in series [4] and in series [6] were 841 ng·h/mL and 288 ng·h/mL, respectively. In the series on PC-12 [8], the viability at 0.3 µM is 86.9%. Besides, in series [11], the half-life was 388 min. For the same molecule, the Papp in the series “in vitro” turned out to be 16.6 ×10⁻⁶ cm/s. For the same molecule, the AUC(0-t) in series [13] was found to be 254 ng·h/mL.
